Like-named read-outs stand apart in the source and are kept apart here.
What was measured:
α2-adrenoceptor = experiment: Competitive radioligand binding, [3H]clonidine, rat cerebral cortex; conditions: n.a. = no activity at 10–5 M
Description: The competitive radioligand-binding assay assessed affinity for α1- and α2-adrenoceptors. Experiments were carried out in the rat cerebral cortex. […] The membrane preparation and assay technique followed the previously reported protocol [10]. Radioactivity was measured using the MicroBeta2 scintillation counter (PerkinElmer, Kraków, Poland). The data was adjusted to match a single-site curve-fitting formula using Prism 8 (GraphPad Software, La Jolla, CA, USA), and the Ki values were estimated by means of the Cheng–Prusoff formula.

HepG2 cells = experiment: Glucose consumption (Amplex Red assay) in HepG2 cells; format: cell-based, human; conditions: for increase in glucose consumption (uptake): relative to vehicle-treated cells
Description: The HepG2 human hepatocellular carcinoma cell line (ATCC® HB-8065™) was cultured in DMEM supplemented with 10% FBS, 100 µg/mL streptomycin, and 100 IU/mL penicillin at 37 °C in 5% CO2. Cells were seeded in 96-well plates at a density of 10,000 cells/well and used for experiments 24 h after plating.
Stock solutions of test compounds were prepared at a concentration of 10 mM in dimethyl sulfoxide (DMSO). At least 1 mg of each substance was carefully measured and mixed with the right amount of DMSO. A series of dilutions were made in DMSO and then further diluted in phosphate-buffered saline before being introduced into the cell culture medium. Precipitation or opalescence was assessed prior to application.
The glucose uptake was measured with the Amplex® Red Glucose/Glucose Oxidase Assay Kit from Thermo Fisher Scientific, following the guidelines provided by the maker. Cell culture supernatants were collected and incubated with a reaction mix containing 100 μM Amplex® Red reagent, 0.2 U/mL horseradish peroxidase (HRP), and 1 U/mL glucose oxidase at room temperature for 30 min in the dark. Fluorescence was measured at 530 nm excitation and 590 nm emission using the POLARstar Omega plate reader (BMG Labtech).

C57BL/6 mice = experiment: Inhibition of gastric emptying (mouse model, phenol red); format: in vivo
Description: Fifty male C57BL/6 mice (22–27 g) were housed in standard cages while maintaining a 12:12-h light/dark cycle, with food and water available ad libitum. The experimental procedures were performed from 10:00 a.m. to 14:00 p.m.
The experiment was conducted according to Miyasaka et al. and Kotańska et al., with some minor modifications. Mice were subjected to a 20 h food deprivation and a 2 h water deprivation prior to testing. The animals received a vehicle (0.25 mL/mouse) alone or along with various compounds: JP-14 (10 mg/kg b. w.), RT (5 mg/kg body weight), metformin (100 mg/kg b. w.), or loperamide (reference compound; 10 mg/kg b. w.) via gastric gavage. Following a 45 min interval, phenol red (0.5 mL, 0.05% w/v) combined with glucose (1 g/kg body weight) was administered through the same route. Additionally, each group received an intraperitoneal injection of heparin (2500 U/mouse) 20 min prior to the collection of stomach contents. Seven mice treated with the vehicle were sacrificed immediately after the phenol red administration to serve as a standard control (representing 100% phenol red in the stomach at 0 min), establishing a baseline for maximum absorbance (100%). The leftover mice were sacrificed 30 min later. The stomachs were removed and homogenized using an OMNI homogenizer (OMNI International Company, Kennesaw, GA, USA), with 10 mL of 0.1 N NaOH. To 5 mL of homogenate, 0.5 mL of 20% w/v solution of trichloroacetic acid was incorporated to precipitate the proteins. Subsequently, the samples were centrifuged at 600× g for 15 min at a temperature of 20 °C, and 0.25 mL of supernatant was mixed with 1 mL of 0.5 N NaOH to achieve maximum color intensity. The concentration of phenol red was measured using spectrophotometry, with absorbance evaluated at a wavelength of 560 nm (MuLTISKAN.GO, Thermo Fisher Scientific Inc., Waltham, MA USA). For each mouse, the percentage of gastric emptying (GE %) was calculated using the following equation:(1) GE%=(Ac0−Ab)/(Ac0−Ac30)×100% where: Ac0 is the absorbance of the control gastric sample collected immediately after dye administration, and Ac30 is the absorbance of the control gastric sample collected 30 min after dye administration, i.e., Ac0–Ac30 = 100% gastric emptying.

3T3-L1 cells = experiment: Lipid accumulation (AdipoRed assay) in 3T3-L1 cells; format: cell-based, mouse; conditions: for lipid accumulation (intracellular lipid content), reduction: 10 µM, compared to vehicle-treated controls
Description: (§1) The 3T3-L1 mouse embryonic fibroblast cell line (ATCC CRL-11605) was cultured according to the standard protocol in Dulbecco’s Modified Eagle Medium (DMEM) supplemented with 10% bovine calf serum, 100 µg/mL streptomycin, and 100 IU/mL penicillin, at 37 °C in a humidified atmosphere containing 5% CO2. Cells were seeded at a density of 10,000 cells/well in collagen type I–coated (10 µg/mL) 96-well plates and allowed to attach for 24 h. Differentiation was initiated by replacing the medium with induction medium composed of DMEM, 0.5 mM 3-isobutyl-1-methylxanthine (IBMX), 1 µM dexamethasone, and 10% fetal bovine serum (FBS). After 48 h (differentiation day 2), the medium was replaced with DMEM supplemented with 10% FBS and 10 µg/mL human recombinant insulin. After an additional 24 h, the medium was replaced with DMEM supplemented with 10% bovine calf serum, 100 µg/mL streptomycin, and 100 IU/mL penicillin. The medium was refreshed every 24 h for 10 consecutive days to allow full differentiation into adipocytes.
On day 10 of differentiation, cells were treated with test compounds for 24 h. To investigate the involvement of the TAAR1 receptor, cells were pre-treated for 15 min with the selective TAAR1 antagonist RTI-7470-44 (40 nM) before compound exposure. After incubation, the culture medium was removed, and wells were gently rinsed with 200 µL PBS and refilled with 200 µL PBS. AdipoRed reagent (5 µL; Lonza) was added to each well, mixed, and incubated at room temperature for 10 min. Fluorescence was measured using the POLARstar Omega plate reader (excitation 485 nm, emission 535 nm).

[1] = tested on: multiple species TAAR1 (mouse, rat, and human); parameters: method as in PMID 31848873; conditions: heterologous cell lines; cited from earlier work
HEPG2 cell line [2] = format: cell-based; conditions: human, 24 h
Description: (§2) Prior to investigating the biological activity and molecular characteristics of the test compounds in vitro, a comprehensive cytotoxicity screening was performed using HepG2 and 3T3-L1 cell lines. Two complementary assays were applied: one based on the quantification of adenylate kinase release as an indicator of cell membrane damage, and another relying on resazurin reduction to assess cellular metabolic activity. These complementary assays enable sensitive and reliable detection of cytotoxic effects across diverse cell types. This preliminary assessment was carried out to ensure that subsequent functional analyses would not be confounded by nonspecific cytotoxic effects.
(§3) The damage of cell membrane was evaluated with the ToxiLight BioAssay Kit from Lonza (Visp, Switzerland). This test is very sensitive and measures cell damage by looking at the release of adenylate kinase (AK). After 24 h of treatment, 5 µL of culture supernatant was transferred to a 384-well white plate (PerkinElmer, Singapore), followed by the addition of 20 µL of Adenylate Kinase Detection Reagent (AKDR). After a 10 min incubation at room temperature, luminescence was measured using the POLARstar Omega plate reader (BMG Labtech, Ortenberg, Germany). Results were expressed as a percentage relative to a lysed control (100% cell death).

3T3L1 cell line = format: cell-based; conditions: mouse, 24 h
Description: as §2, §3

HEPG2 cell line [3] = experiment: Cell viability assay (PrestoBlue, metabolic function), HepG2; format: cell-based, human; conditions: 24 h, mean
Description: as §2
(§4) Cell viability was measured using PrestoBlue reagent (Thermo Fisher Scientific, Waltham, MA, USA), following the manufacturer’s instructions. After 24 h of compound treatment, PrestoBlue reagent was added to each well at 10% of the remaining medium volume. The plate was incubated at 37 °C for 15 min, and fluorescence was measured using the POLARstar Omega plate reader (excitation 530 nm, emission 580 nm). Results were expressed as a percentage of viable cells relative to the DMSO-treated control.

human TAAR1 = biological target: T1, human TAAR1 (Homo sapiens, UniProt Q96RJ0); experiment: TAAR1 agonist activity, Hit Hunter cAMP assay; format: cell-based; conditions: cAMP accumulation; n.a. = no activity at 10–5 M; read-out: TAAR1 Ago EC50
T1 sequence (Q96RJ0 1-339): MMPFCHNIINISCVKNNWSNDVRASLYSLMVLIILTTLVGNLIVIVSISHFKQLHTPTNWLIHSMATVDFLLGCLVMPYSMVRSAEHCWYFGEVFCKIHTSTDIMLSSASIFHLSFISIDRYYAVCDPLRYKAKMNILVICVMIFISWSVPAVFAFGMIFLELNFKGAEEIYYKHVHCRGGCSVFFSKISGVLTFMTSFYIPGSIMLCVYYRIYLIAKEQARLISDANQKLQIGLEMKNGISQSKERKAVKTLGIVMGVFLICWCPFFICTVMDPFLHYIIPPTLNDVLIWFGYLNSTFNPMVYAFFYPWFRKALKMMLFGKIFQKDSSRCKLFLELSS
Description: The intrinsic activity of the TAAR1 receptor will be assessed according to the manufacturer’s protocol, using the Hit Hunter® cAMP assay by DiscoverX. This assay enables monitoring of GPCR activation in cells stably expressing TAAR1 by measuring changes in the level of the secondary messenger, cAMP. The cAMP Hunter cell lines were cultured from frozen stocks following standard procedures. Cells were plated in white-walled 384-well microplates at a total volume of 20 µL per well and incubated at 37 °C for the required period before analysis. To assess agonist activity, cells were exposed to the test compound to trigger a response. The culture medium was then removed and replaced with 15 µL of a 2:1 mixture of HBSS and 10 mM Hepes containing the cAMP XS+ antibody reagent. Sample stocks were diluted to prepare a 4× concentration in assay buffer. Subsequently, 5 µL of the 4× sample was added to each well, and the plates were incubated at either 37 °C or room temperature for 30 or 60 min. The vehicle was used at a concentration of 1%. After incubating the compounds for the required time, the assay signal was produced by adding 20 µL of the cAMP XS+ ED/CL lysis cocktail and incubating for one hour. This was followed by a three-hour incubation with 20 µL of the cAMP XS+EA reagent at room temperature. After signal development, the microplates were read using a PerkinElmer Envision Reader to detect chemiluminescence.

3T3-L1 adipocytes [4] = experiment: Phospholipidosis, HCS LipidTOX imaging in 3T3-L1 adipocytes; format: cell-based, mouse
Description: as §1
(§5) Lipid accumulation and phospholipidosis were evaluated using the HCS LipidTOX Phospholipidosis and Steatosis Detection Kit (Thermo Fisher Scientific). Cells were cultured in black, clear-bottom 96-well plates and treated as described. Next, cells were fixed with 4% paraformaldehyde (15 min), washed with PBS, and stained with LipidTOX Green Neutral Lipid Stain (for steatosis) and LipidTOX Red Phospholipidosis Detection Reagent, prepared according to the manufacturer’s instructions. Nuclei were counterstained with Hoechst 33342 (2 µg/mL). Image acquisition and quantitative analysis were performed using High Content Screening (HCS) technology on the ImageXpress XLS system (Molecular Devices). Lipid droplet and phospholipid content were quantified using automated image analysis pipelines.

3T3-L1 cell line = experiment: Cell viability assay (PrestoBlue, metabolic function), 3T3-L1; format: cell-based, mouse; conditions: 24 h, mean
Description: as §2, §4

3T3-L1 adipocytes [5] = experiment: Steatosis, HCS LipidTOX imaging in 3T3-L1 adipocytes; format: cell-based, mouse
Description: as §1, §5

N#Cc1cc(/C=N/NC(=N)N)ccc1F
Ki (α2-adrenoceptor): 996 nM

COc1ccc(/C=N/NC(=N)N)cc1 [4 (JP06)]
Ki (α2-adrenoceptor): 1070 ± 78 nM

CN(C)C(=N)N=C(N)N [Metformin, metformin]
increase in glucose consumption (uptake) (HepG2 cells; 100 µM): 36%
inhibitory effect on gastric emptying (C57BL/6 mice; 100 mg/kg b.w.): about 30%

CN(CCOc1ccc(CC2SC(=O)NC2=O)cc1)c1ccccn1 (stereo not drawn) [Rosiglitazone, rosiglitazone]
lipid accumulation, reduction (3T3-L1 cells; 100 µM, relative to vehicle-treated cells): 90%

CN(C)C(=O)C(CCN1CCC(O)(c2ccc(Cl)cc2)CC1)(c1ccccc1)c1ccccc1 [loperamide]
percentage inhibition of gastric emptying (C57BL/6 mice; intragastric, 10 mg/kg b.w.): about 55%

Clc1cccc(N2CCNCC2)c1 [mCPP, meta-chlorophenylpiperazine]
lipid accumulation (intracellular lipid content), reduction (3T3-L1 cells): significantly increased lipid accumulation
increase in glucose consumption (uptake) (HepG2 cells; 10 µM): no significant changes

NCC(O)c1ccc(O)cc1 (stereo not drawn) [para-octopamine]
EC50 [1]: 2000 to 20000 nM

NCCc1c[nH]c2ccccc12 [tryptamine]
EC50 [1]: 400 to 21000 nM

NCCc1ccc(O)cc1 [tyramine]
lipid-lowering effect under TAAR1 blockade (3T3-L1 cells; 10 µM + RTI-7470-44 (40 nM)): completely abolished
lipid accumulation (intracellular lipid content), reduction (3T3-L1 cells): 33%
membrane integrity, percentage relative to control (death cells) (HEPG2 cell line [2]; 0.1 μM): 8%
membrane integrity, percentage relative to control (death cells) (HEPG2 cell line [2]; 1 μM): 7%
membrane integrity, percentage relative to control (death cells) (HEPG2 cell line [2]; 10 μM): 7%
membrane integrity, percentage relative to control (death cells) (HEPG2 cell line [2]; 50 μM): 8%
membrane integrity, percentage relative to control (death cells) (HEPG2 cell line [2]; 100 μM): 11%
membrane integrity, percentage relative to control (death cells) (3T3L1 cell line; 0.1 μM): 6%
membrane integrity, percentage relative to control (death cells) (3T3L1 cell line; 1 μM): 6%
membrane integrity, percentage relative to control (death cells) (3T3L1 cell line; 10 μM): 6%
membrane integrity, percentage relative to control (death cells) (3T3L1 cell line; 50 μM): 6%
membrane integrity, percentage relative to control (death cells) (3T3L1 cell line; 100 μM): 8%
cellular metabolic function, percentage relative to control (live cells) (HEPG2 cell line [3]; Table S4, 0.1 μM): 101%
cellular metabolic function, percentage relative to control (live cells) (HEPG2 cell line [3]; Table S4, 1 μM): 98%
cellular metabolic function, percentage relative to control (live cells) (HEPG2 cell line [3]; Table S4, 10 μM): 97%
cellular metabolic function, percentage relative to control (live cells) (HEPG2 cell line [3]; Table S4, 50 μM): 89%
cellular metabolic function, percentage relative to control (live cells) (HEPG2 cell line [3]; Table S4, 100 μM): 80%
EC50 (human TAAR1): 5870 ± 470 nM
effect on phospholipidosis under TAAR1 blockade (3T3-L1 adipocytes [4]; 10 µM + RTI-7470-44 (40 nM)): reversed
phospholipidosis (phospholipid accumulation) (3T3-L1 adipocytes [4]; 10 µM, vs vehicle): significantly reduced
glucose-stimulating effect under TAAR1 blockade (HepG2 cells; 10 µM + RTI-7470-44 (40 nM)): substantially attenuated
increase in glucose consumption (uptake) (HepG2 cells; 10 µM): 32%
cellular metabolic function, percentage relative to control (live cells) (3T3-L1 cell line; Table S5, 0.1 μM): 95%
cellular metabolic function, percentage relative to control (live cells) (3T3-L1 cell line; Table S5, 1 μM): 90%
cellular metabolic function, percentage relative to control (live cells) (3T3-L1 cell line; Table S5, 10 μM): 88%
cellular metabolic function, percentage relative to control (live cells) (3T3-L1 cell line; Table S5, 50 μM): 67%
cellular metabolic function, percentage relative to control (live cells) (3T3-L1 cell line; Table S5, 100 μM): 55%
effect on steatosis under TAAR1 blockade (3T3-L1 adipocytes [5]; 10 µM + RTI-7470-44 (40 nM)): abolished
steatosis (neutral lipid accumulation) (3T3-L1 adipocytes [5]; 10 µM, vs vehicle): statistically significant decrease

Source: publication PMC12563652 (International Journal of Molecular Sciences, 2025)
